Like-named read-outs stand apart in the source and are kept apart here.

This experiment has as its system S. aureus Oxford, S. aureus WCUH29, S. aureus Carter 37, E. faecalis I, M. catarrhalis Ravasio, S. pneumoniae R6. As to the kind of experiment: MIC of test compounds against various organisms. The note with it: against one or more of S. aureus Oxford. It counts as cell-based. How it is done:
The MIC (μg/ml) of test compounds against various organisms was determined: S. aureus Oxford, S. aureus WCUH29, S. aureus Carter 37, E. faecalis I, M. catarrhalis Ravasio, S. pneumoniae R6.

In the case of `COc1ccc2nccc([C@@H](O)CN3CCN(CCCOc4ccccc4)CC3)c2c1` [Example 33, 1-(3-phenoxypropyl)-4-[2-(R)-hydroxy-2-(6-methoxyquinolin-4-yl)ethyl]piperazine], under “read-out: MIC”, the minimal inhibitory concentration (MIC) (as a rule, the least concentration at which growth counts as inhibited) is at most 16 µg/mL.

Take `CCCCCCCN1CCN(CC(O)c2ccnc3ccc(OC)cc23)[C@@H](CCO)C1.O=C(O)C(=O)O.O=C(O)C(=O)O` (stereo partly drawn) [Example 12, [3S]-1-Heptyl-3-[2-hydroxyetbyl]-4-[2-(R,S)hydroxy-2-(6-methoxyquinolin-4-yl)ethyl]piperazine dioxalate]: the MIC result is on record as “less than or equal to 1 μg/ml”.

For `CCCCCCCN1CCN(C[C@H](O)c2ccnc3ccc(OC)cc23)[C@H](CC(=O)O)C1.O=C(O)C(F)(F)F.O=C(O)C(F)(F)F.O=C(O)C(F)(F)F` [Example 11, [3R]-3-Carboxymethyl-1-heptyl-4-[2-(R)-hydroxy-2-(6-methoxyquinolin-4-yl)ethyl]piperazine tris(trifluoroacetate)], where the note is “read-out: MIC”, the MIC is at most 16 µg/mL.

Values taken from patent publication US6911442B1, “Quinoline derivatives as antibacterials” (SmithKline Beecham p.l.c., priority 1999, dated 2005).
